Reference: US7767649B2, “Amino acid conjugates providing for sustained systemic concentrations of GABA analogues” (XenoPort, Inc., priority 2002, dated 2010)

Tested on: PEPT2
Assay: Electrogenic transport in Xenopus oocytes expressing PEPT2 (two-electrode electrophysiology)
Type: cell-based
Details: compound at 1 mM, normalized to saturating glycyl-sarcosine (1 mM)
Experimental: Rat and human PEPT1 and PEPT2 expressing CHO cell lines were prepared as described in PCT Application WO01/20331. Gabapentin-containing dipeptides were evaluated for interaction with the peptide transporters using a radiolabeled substrate uptake assay in a competitive inhibition format, as described in PCT Application WO01/20331. Transport-induced currents were also measured in Xenopus oocytes transfected with rat and human PEPT1 and PEPT2.
Rat and human PEPT1 and PEPT2 transporter cDNAs were subcloned into a modified pGEM plasmid that contains 5′ and 3′ untranslated sequences from the Xenopus β-actin gene. These sequences increase RNA stability and protein expression. Plasmid cDNA was linearized and used as template for in vitro transcription (Epicentre Technologies transcription kit, 4:1 methylated:non-methylated GTP).
Xenopus laevis frogs were anesthetized by immersion in Tricaine ([…] in deionized water) for 15 min. Oocytes were removed and digested in frog ringer solution (90 mM NaCl, 2 mM KCl, 1 mM MgCl2, 10 mM NaHEPES, pH 7.45, no CaCl2) with 1 mg/mL collagenase (Worthington Type 3) for 80-100 min with shaking. […]
Transport currents were measured 2-14 days after injection, using a standard two-electrode electrophysiology set-up (Geneclamp 500 amplifier, Digidata 1320/PCLAMP software and ADInstruments hardware and software were used for signal acquisition). […]

C[C@H](NC(=O)[C@@H](N)CNC(=O)CC1(CN)CCCCC1)C(=O)O [N-β-(Gabapentinyl)-L-Diaminopropionyl-L-Alanine]
induced current as % of Imax: 45%
